The nature of series [1]: Evaluation of stability (1): forced degradation test, impurities by LC. The following applies: for Change from Impurity Amt. before Storage (%), Condition 3 / Change from Impurity Amt. before Storage (%), Condition 2: 25° C., 5 days; for Change from Impurity Amt. before Storage (%), Condition 3: NUV (near ultraviolet ray) irradiated; for Change from Impurity Amt. before Storage (%), Condition 3 / Change from Impurity Amt. before Storage (%), Condition 1: tightly closed; for Change from Impurity Amt. before Storage (%), Condition 2: relative humidity 93%, open; for Change from Impurity Amt. before Storage (%), Condition 1: 120° C., 24 hours. As to the method: A sample after storage was dissolved in 1 mL of MeOH and used as a sample solution. The sample solution was diluted 100 times with MeOH and used as a standard solution. Impurities contained in the sample solution was quantitatively analyzed using the standard solution. In this determination, the apparatus including data processing was operated according to the method and procedure directed in each device. (Apparatus: LC-MSD 1100 series, made by Agilent)

Series [2] is described as follows: Evaluation of hygroscopicity (dynamic steam adsorption, weight change). The format is physicochemical. The following applies: 25° C., within the range 5–95% relative humidity. As for the experimental part:
A sample (about 5 mg) was placed in a purpose-made quartz holder, and the sample weight at the respective humidity was continuously measured and recorded in the following conditions. The apparatus including data processing was operated according to the method and procedure directed in each device. (Apparatus: dynamic steam adsorption measuring apparatus DVS Advantage, made by SMS)

In series [3] the target is T1, muscarinic M3 receptors (Cavia porcellus, UniProt H0W1Z3).
T1 construct: Smooth muscle cells were isolated from guinea pig bladders; from tissue; host or cells: smooth muscle cells freshly isolated from guinea pig bladder
T1 sequence (H0W1Z3 1-590): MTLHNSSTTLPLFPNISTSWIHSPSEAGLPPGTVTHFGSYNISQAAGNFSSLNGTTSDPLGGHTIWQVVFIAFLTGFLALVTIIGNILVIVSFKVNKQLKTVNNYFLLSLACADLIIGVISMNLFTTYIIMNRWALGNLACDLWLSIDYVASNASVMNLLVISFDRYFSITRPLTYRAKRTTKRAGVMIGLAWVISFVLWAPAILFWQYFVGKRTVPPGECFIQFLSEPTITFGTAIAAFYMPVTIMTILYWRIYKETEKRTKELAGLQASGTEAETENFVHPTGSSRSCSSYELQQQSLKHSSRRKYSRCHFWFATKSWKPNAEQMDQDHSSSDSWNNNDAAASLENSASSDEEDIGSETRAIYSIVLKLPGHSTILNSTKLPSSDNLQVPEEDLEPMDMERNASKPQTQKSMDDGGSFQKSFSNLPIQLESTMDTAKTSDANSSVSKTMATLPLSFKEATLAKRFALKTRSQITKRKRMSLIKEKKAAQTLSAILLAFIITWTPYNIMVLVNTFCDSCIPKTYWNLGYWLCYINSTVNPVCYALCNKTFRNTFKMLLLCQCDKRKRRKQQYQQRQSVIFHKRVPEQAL
Nature of the series: Functional affinity estimate for muscarinic M3 receptors in bladders (carbachol-induced intracellular Ca2+ change in bladder smooth muscle cells). The format is cell-based, guinea pig. Particulars: for IC50: IC50 (ng/mL), inhibition of carbachol-induced Ca2+ increase, guinea pig bladder smooth muscle cells, Fura2; for Ki: Ki (nM), IC50 converted by Cheng-Prusoff equation based on EC50 of carbachol. As for the experimental part:
Below, the method is described in brief.
Smooth muscle cells were isolated from guinea pig bladders from which the […] had been removed, loaded with a calcium-sensitive fluorescent dye Fura2 and suspended in phenol red-free Hanks' buffer solution supplemented with 20 mM HEPES (pH 7.4) and 0.1% bovine serum albumin. An aliquot of cell suspension (490 μL) was continuously stirred, kept at 28° C. and monitored for the ratio of fluorescence (500 nm) at 340 nm excitation to that at 380 nm excitation. To each aliquot, 5 μL of test compound and carbachol solutions were serially added with a 2 minute interval, and the peak increase in the ratio over the level just before stimulation was used in data analysis.

Here are results for seven molecules from patent US7176219B2, “Salts of quinuclidine derivative” (priority 2005, dated 2007).

Where only a bound is given, the exact number is not on record here.

The term IC50 denotes the concentration that inhibits the measured activity by half. For orientation: Ki means the dissociation constant of the complex between target and ligand, obtained from inhibition or displacement. Regarding `O=C(O[C@H]1CN2CCC1CC2)N1CCc2ccccc2[C@H]1c1ccccc1` [Example 2, (−)-(3R)-quinuclidin-3-yl(1R)-1-phenyl-1,2,3,4-tetrahydroisoquinoline-2-carboxylate (+)-(2S,3S)-di-O-benzoyltartrate], in series [1], the “Change from Impurity Amt. before Storage (%), Condition 3” value (“Change … (%), Condition 3” for short) is 0.0%; the “Change from Impurity Amt. before Storage (%), Condition 2” value (“Change … (%), Condition 2” below) is 0.1%; the “Change from Impurity Amt. before Storage (%), Condition 1” value (shortened to “Change … (%), Condition 1”) stood at 0.2%; the “Impurities before Storage (%)” value was found to be 0.0%. Moreover, the “Weight Change (%)” value in series [2] was under 1%. In addition, in series [3], the concentration for half-maximal inhibition (IC50) is 8.83 nM and the Ki is 0.62 ± 0.16 nM.
For the molecule `O=C(O[C@H]1CN2CCC1CC2)N1CCc2ccccc2[C@H]1c1ccccc1` [Example 3, (−)-(3R)-quinuclidin-3-yl(1R)-1-phenyl-1,2,3,4-tetrahydroisoquinoline-2-carboxylate (+)-(2S,3S)-di-O-(4-methylbenzoyl)tartrate], in series [1], the “Change … (%), Condition 3” value was determined as 0.0%; the “Change … (%), Condition 2” value is 0.1%; the “Change … (%), Condition 1” value was 2.3%; the “Impurities before Storage (%)” value was determined as 0.0%. Also, the “Weight Change (%)” value in series [2] is on record as under 1%. In addition, in series [3], the IC50 is 10.5 nM and the Ki was 0.69 ± 0.19 nM.
As to `O=C(O[C@H]1CN2CCC1CC2)N1CCc2ccccc2[C@H]1c1ccccc1.O=S(=O)(O)c1ccccc1` [Example 5-1, (−)-(3R)-quinuclidin-3-yl(1R)-1-phenyl-1,2,3,4-tetrahydroisoquinoline-2-carboxylate benzenesulfonate], in series [1] (benzenesulfonate), the “Change … (%), Condition 3” value is reported as −0.2%; the “Change … (%), Condition 2” value is on record as 0.0%; the “Change … (%), Condition 1” value is on record as −0.1%; the “Impurities before Storage (%)” value was determined as 1.8%. The “Weight Change (%)” value in series [2] was under 1%.
Turning to `Cc1ccc(S(=O)(=O)O)cc1.O=C(O[C@H]1CN2CCC1CC2)N1CCc2ccccc2[C@H]1c1ccccc1` [Example 11, (−)-(3R)-quinuclidin-3-yl(1R)-1-phenyl-1,2,3,4-tetrahydroisoquinoline-2-carboxylate p-toluenesulfonate], in series [1], the “Change … (%), Condition 3” value was 0.0%; the “Change … (%), Condition 2” value was 0.1%; the “Change … (%), Condition 1” value is given as −0.1%; the “Impurities before Storage (%)” value is 0.5%. Further, the “Weight Change (%)” value in series [2] is under 6%. Also, in series [3], the IC50 was 4.11 nM and the Ki is 0.52 ± 0.13 nM.
Consider `CCS(=O)(=O)O.O=C(O[C@H]1CN2CCC1CC2)N1CCc2ccccc2[C@H]1c1ccccc1` [Example 12, (−)-(3R)-quinuclidin-3-yl(1R)-1-phenyl-1,2,3,4-tetrahydroisoquinoline-2-carboxylate ethanesulfonate], for which, in series [1], the “Change … (%), Condition 3” value is reported as −0.1%; the “Change … (%), Condition 2” value is −0.1%; the “Change … (%), Condition 1” value was −0.2%; the “Impurities before Storage (%)” value is given as 1.4%. Besides, the “Weight Change (%)” value in series [2] is recorded as under 5%. In series [3], the IC50 is 4.02 nM and the Ki is 0.54 ± 0.055 nM.
Consider `CS(=O)(=O)O.O=C(O[C@H]1CN2CCC1CC2)N1CCc2ccccc2[C@H]1c1ccccc1` [Example 13, (−)-(3R)-quinuclidin-3-yl(1R)-1-phenyl-1,2,3,4-tetrahydroisoquinoline-2-carboxylate methanesulfonate], for which the “Weight Change (%)” value in series [2] is on record as under 25%.
The same measure, in the same setting: in the case of “(−)-(3R)-quinuclidin-3-yl(1R)-1-phenyl-1,2,3,4-tetrahydroisoquinoline-2-carboxylate methyl phosphate [Example 14]” it was under 11%.
